Data published in patent US20050197350A1, “Novel quinoline, tetrahydroquinazoline, and pyrimidine derivatives and methods of treatment related to the use thereof” (TAISHO PHARMACEUTICAL CO., LTD., priority 2003, published 2005).

Tested on: MCH receptors
Experiment: MCH receptor activity class (method not given)
Conditions: not given

class | Structure (SMILES)
1 | Cc1cccc(C(=O)N[C@H]2CC[C@@H](Nc3cc(C)c4ccccc4n3)CC2)c1 [Example 2543, 3-methyl-N-{cis-4-[(4-methylquinolin-2-yl)amino]cyclohexyl}benzamide]
1 | Cc1ccc(C(=O)N[C@H]2CC[C@@H](Nc3cc(C)c4ccccc4n3)CC2)cc1 [Example 2544, 4-methyl-N-{cis-4-[(4-methylquinolin-2-yl)amino]cyclohexyl}benzamide]
1 | Cc1cc(N[C@H]2CC[C@@H](NC(=O)c3ccc(F)cc3)CC2)nc2ccccc12 [Example 2545, 4-fluoro-N-{cis-4-[(4-methylquinolin-2-yl)amino]cyclohexyl}benzamide]
3 | Cc1cc(N[C@H]2CC[C@@H](NC(=O)c3cccc(C(F)(F)F)c3)CC2)nc2ccccc12 [Example 2546, N-{cis-4-[(4-methylquinolin-2-yl)amino]cyclohexyl}-3-(trifluoromethyl)benzamide]
1 | Cc1cc(N[C@H]2CC[C@@H](NC(=O)c3cccc(Cl)c3)CC2)nc2ccccc12 [Example 2547, 3-chloro-N-{cis-4-[(4-methylquinolin-2-yl)amino]cyclohexyl}benzamide]
1 | Cc1cc(N[C@H]2CC[C@@H](NC(=O)c3cc(C(F)(F)F)cc(C(F)(F)F)c3)CC2)nc2ccccc12 [Example 2548, N-{cis-4-[(4-methylquinolin-2-yl)amino]cyclohexyl}-3,5-bis(trifluoromethyl)benzamide]
1 | COc1cccc(C(=O)N[C@H]2CC[C@@H](Nc3cc(C)c4ccccc4n3)CC2)c1 [Example 2549, 3-methoxy-N-{cis-4-[(4-methylquinolin-2-yl)amino]cyclohexyl}benzamide]
1 | Cc1cc(N[C@H]2CC[C@@H](NC(=O)c3cccc(C#N)c3)CC2)nc2ccccc12 [Example 2550, 3-cyano-N-{cis-4-[(4-methylquinolin-2-yl)amino]cyclohexyl}benzamide]
1 | Cc1cc(N[C@H]2CC[C@@H](NC(=O)COc3ccc(Cl)cc3)CC2)nc2ccccc12 [Example 2551, 2-(4-chlorophenoxy)-N-{cis-4-[(4-methylquinolin-2-yl)amino]cyclohexyl}acetamide]
1 | COc1cc(C(=O)N[C@H]2CC[C@@H](Nc3cc(C)c4ccccc4n3)CC2)cc(OC)c1OC [Example 2552, 3,4,5-trimethoxy-N-{cis-4-[(4-methylquinolin-2-yl)amino]cyclohexyl}benzamide]
1 | COc1cc(OC)cc(C(=O)N[C@H]2CC[C@@H](Nc3cc(C)c4ccccc4n3)CC2)c1 [Example 2553, 3,5-dimethoxy-N-{cis-4-[(4-methylquinolin-2-yl)amino]cyclohexyl}benzamide]
1 | COc1cccc(OCC(=O)N[C@H]2CC[C@@H](Nc3cc(C)c4ccccc4n3)CC2)c1 [Example 2554, 2-(3-methoxyphenoxy)-N-{cis-4-[(4-methylquinolin-2-yl)amino]cyclohexyl}acetamide]
1 | Cc1cc(N[C@H]2CC[C@@H](NC(=O)[C@H](O)c3cccc(Cl)c3)CC2)nc2ccccc12 [Example 2555, (2R)-2-(3-chlorophenyl)-2-hydroxy-N-{cis-4-[(4-methylquinolin-2-yl)amino]cyclohexyl}acetamide]
1 | Cc1cccc(OCC(=O)N[C@H]2CC[C@@H](Nc3cc(C)c4ccccc4n3)CC2)c1 [Example 2556, 2-(3-methylphenoxy)-N-{cis-4-[(4-methylquinolin-2-yl)amino]cyclohexyl}acetamide]
1 | Cc1cc(N[C@H]2CC[C@@H](NC(=O)c3ccc(Br)o3)CC2)nc2ccccc12 [Example 2557, 5-bromo-N-{cis-4-[(4-methylquinolin-2-yl)amino]cyclohexyl}-2-furamide]
2 | Cc1cc(N[C@H]2CC[C@@H](NC(=O)Nc3ccc(OCc4ccccc4)cc3)CC2)nc2ccccc12 [Example 2558, N-[4-(benzyloxy)phenyl]-N′-{cis-4-[(4-methylquinolin-2-yl)amino]cyclohexyl}urea]
1 | Cc1cc(N[C@H]2CC[C@@H](NC(=O)Nc3ccc(Oc4ccccc4)cc3)CC2)nc2ccccc12 [Example 2559, N-{cis-4-[(4-methylquinolin-2-yl)amino]cyclohexyl}-N′-(4-phenoxyphenyl)urea]
2 | Cc1cc(N[C@H]2CC[C@@H](NC(=O)Nc3cccc(Oc4ccccc4)c3)CC2)nc2ccccc12 [Example 2560, N-{cis-4-[(4-methylquinolin-2-yl)amino]cyclohexyl}-N′-(3-phenoxyphenyl)urea]
1 | Cc1cc(N[C@H]2CC[C@@H](NC(=O)Nc3ccccc3Oc3ccccc3)CC2)nc2ccccc12 [Example 2561, N-{cis-4-[(4-methylquinolin-2-yl)amino]cyclohexyl}-N′-(2-phenoxyphenyl)urea]
1 | Cc1cccc(C(=O)N[C@H]2CC[C@@H](Nc3ncc(C)c(N(C)C)n3)CC2)c1 [Example 2562, N-(cis-4-{[4-(dimethylamino)-5-methylpyrimidin-2-yl]amino}cyclohexyl)-3-methylbenzamide]
1 | COc1cccc(C(=O)N[C@H]2CC[C@@H](Nc3ncc(C)c(N(C)C)n3)CC2)c1 [Example 2563, N-(cis-4-{[4-(dimethylamino)-5-methylpyrimidin-2-yl]amino}cyclohexyl)-3-methoxybenzamide]
1 | COc1cccc(C(=O)N[C@H]2CC[C@@H](Nc3nc(C)cc(N(C)C)n3)CC2)c1 [Example 2564, N-(cis-4-{[4-(dimethylamino)-6-methylpyrimidin-2-yl]amino}cyclohexyl)-3-methoxybenzamide]

Same assay, conditions: class by percent of control at 10^-7 M or IC50

Structure (SMILES) | class
CCOC(=O)c1cccc(NC(=S)N[C@H]2CC[C@@H](Nc3nc4c(c(N(C)C)n3)CCCC4)CC2)c1 [Example 1773] | 3 (Class 3 The value of percent of control at 10^−7 M was more than 60% or the value of IC50 was more than 200 nM.)
CN(C)c1nc(N[C@H]2CC[C@@H](NC(=S)Nc3ccc(Cl)cc3C(F)(F)F)CC2)nc2c1CCCC2 [Example 1774] | 2 (Class 2: The value of percent of control at 10^−7 M was from 40% to 60% or the value of IC′50 was from 50 nM to 200 nM.)

Same assay, conditions: class by percent of control at 10^−7 M or IC50

Structure (SMILES) | class
Cc1cnc(N[C@H]2CC[C@@H](NC(=O)C[S+]([O-])c3ccccc3Cl)CC2)nc1N(C)C (relative stereo) [compound 2881, 2-[(2-chlorophenyl)sulfinyl]-N-(cis-4-{[4-(dimethylamino)-5-methylpyrimidin-2-yl]amino}cyclohexyl)acetamide] | 1 (Class 1: The value of percent of control at 10^−7 M was less than 40% or the value of IC50 was less than 50 nM.)
Cc1cnc(N[C@H]2CC[C@@H](NC(=O)C[S+]([O-])c3cccc(Br)c3)CC2)nc1N(C)C (relative stereo) [compound 2882, 2-[(3-bromophenyl)sulfinyl]-N-(cis-4-{[4-(dimethylamino)-5-methylpyrimidin-2-yl]amino}cyclohexyl)acetamide] | 1 (Class 1: The value of percent of control at 10^−7 M was less than 40% or the value of IC50 was less than 50 nM.)
Cc1cnc(N[C@H]2CC[C@@H](NC(=O)C[S+]([O-])c3ccc(F)c(F)c3)CC2)nc1N(C)C (relative stereo) [compound 2883, 2-[(3,4-difluorophenyl)sulfinyl]-N-(cis-4-{[4-(dimethylamino)-5-methylpyrimidin-2-yl]amino}cyclohexyl)acetamide] | 2 (Class 2: The value of percent of control at 10^−7 M was from 40% to 60% or the value of IC′50 was from 50 nM to 200 nM.)
